Patent US20170305912A1, “PROCESS FOR THE PREPARATION OF 3-PHENYL/HETEROARYL-6-PHENOXY-8-ALKYLAMINO-IMIDAZO[1,2-B]PYRIDAZINE DERIVATIVES” (Bayer Pharma Aktiengesellschaft, priority 2014, published 2017)

Experiment: Particle size distribution in a dry dispersion (Sympatec Helos, method AM-PE 69)
Type: physicochemical
Settings: cumulative undersize distribution by volume
Protocol: It turned out that the crystalline form of N-cyclopropyl-4-{6-(2,3-difluor-4-methoxyphenoxy)-8-[(3,3,3-trifluorpropyl)amino]imidazo[1,2-b]pyridazin-3-yl}-2-methylbenzamide prepared by the method of the present invention comprising steps (a) to (g), supra, is characterized by an advantageous particle size distribution. […] The particle size distribution was determined in a dry dispersion using the device “Sympatec Helos” and the method “AM-PE 69” (Pharmdoss).
Batch Nos. 1 to 5 were prepared by the method of the present invention comprising steps (a) to (c), supra. In case of Batch Nos. 2 to 5, the preparation method comprised the additional steps (d) to (g) (in case of Batch No. 1 steps (d) to (g) were not applied).
It can be clearly seen that the particles of Batch Nos. 2 to 5 are smaller than the particles of Batch No. 1 and the distribution is more uniform. In case of Batch Nos. 2 to 5, further micronization of the particles might not be necessary in order to increase the solubility or bioavailability of the final drug.

[1] = listed as 2, prepared with steps (d) to (g)
[2] = prepared without steps (d) to (g)
[3] = listed as 4, prepared with steps (d) to (g)
[4] = listed as 5, prepared with steps (d) to (g)

Row | Compound | X10 (particle size distribution) [1] | X50 (particle size distribution) [1] | X90 (particle size distribution) [1] | X10 (particle size distribution) [2] | X50 (particle size distribution) [2] | X90 (particle size distribution) [2] | X10 (particle size distribution) [3] | X50 (particle size distribution) [3] | X90 (particle size distribution) [3] | X10 (particle size distribution) [4] | X50 (particle size distribution) [4] | X90 (particle size distribution) [4] | X10 (particle size distribution) (prepared with steps (d) to (g)) | X50 (particle size distribution) (prepared with steps (d) to (g)) | X90 (particle size distribution) (prepared with steps (d) to (g))
1 | 6,8-Bis(2,3-difluoro-4-methoxyphenoxy)-3-iodoimidazo[1,2-b]pyridazine [Example 1] | 1.4 μm | 5.3 μm | 36.1 μm | 2.0 μm | 18.2 μm | 249.0 μm | – | – | – | – | – | – | – | – | –
2 | COc1ccc(Oc2cc(Oc3ccc(OC)c(F)c3F)c3ncc(-c4ccc(C(=O)NC5CC5)c(C)c4)n3n2)c(F)c1F [Example 3, 4-[6,8-bis(2,3-difluoro-4-methoxyphenoxy)imidazo[1,2-b]pyridazin-3-yl]-N-cyclopropyl-2-methylbenzamide] | – | – | – | – | – | – | 1.3 μm | 4.2 μm | 13.2 μm | 1.2 μm | 4.0 μm | 12.4 μm | 1.2 μm | 4.1 μm | 9.9 μm
